One data set concerns the target T1, serotonin transporter (Rattus norvegicus, UniProt P31652).
T1 construct: evaluated using rat platelets expressing serotonin transporters; from tissue
Description: Inhibitory action on serotonin transporter (fluorescent substrate uptake in rat platelets). Format: cell-based.

In the next data set the test system is male BALB/c mice. Description: In vivo efficacy test by forced swimming. The settings on record: oral, 1 hour before test; Example 1 10, 30 or 100 mg/kg, paroxetine 30 or 100 mg/kg; last 4 minutes; FIG. 1. Also noted: species or system mouse. The procedure: After 1 hour, the mice were placed individually in glass cylinders (19 cm in height, 9 cm in diameter) holding 9 cm of water, and observed at 23° C. for 6 minutes, during which time their behavior was recorded with a video camera. The control group was given the same amount of vehicle (0.5% methyl cellulose solution, 10 mL/kg).
The immobility times during the last 4 minutes were calculated from the video recordings. The mice were considered to be immobile if the following three behavioral criteria were met: they stopped struggling, stopped climbing, and floated on the water basically immobile, with only the slight movement necessary to keep their heads above water.

In data set [1] the target is T2, CYP2C9 (Homo sapiens, UniProt P11712). Nature of the data set: Time-dependent CYP inhibition (Method 1), human hepatic microsome. Format: in vitro ADME. The conditions noted are these: 30 min pre-incubation at 37° C., tolbutamide, n = 2.
T2 sequence (P11712 whole entry): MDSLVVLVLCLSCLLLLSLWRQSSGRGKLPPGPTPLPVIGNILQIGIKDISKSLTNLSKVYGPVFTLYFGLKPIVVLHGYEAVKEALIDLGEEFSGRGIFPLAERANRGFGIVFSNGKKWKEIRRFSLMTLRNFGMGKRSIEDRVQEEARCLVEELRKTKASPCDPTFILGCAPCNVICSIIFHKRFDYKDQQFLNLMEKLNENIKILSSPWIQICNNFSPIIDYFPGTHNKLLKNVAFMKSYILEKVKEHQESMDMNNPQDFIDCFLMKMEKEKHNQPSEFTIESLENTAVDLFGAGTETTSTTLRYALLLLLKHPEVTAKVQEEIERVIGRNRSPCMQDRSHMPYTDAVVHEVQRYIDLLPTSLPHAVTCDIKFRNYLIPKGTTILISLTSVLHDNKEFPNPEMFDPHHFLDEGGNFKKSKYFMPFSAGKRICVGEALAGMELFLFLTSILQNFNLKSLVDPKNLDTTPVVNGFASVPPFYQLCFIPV
Description: (§2) The test substance was added to an enzyme solution (containing human hepatic microsome (0.2 mg/mL), 100 mM Kpi and 0.1 mM EDTA), and pre-incubated for 30 minutes at 37° C. in the presence of or absence of the coenzyme. The final concentration of the test substance was set at 0.1, 0.2, 0.4, 0.5, 1, 2, 10 or 50 μM. A NADPH generating system (60 mM MgCl2 solution containing 3.6 mM β-NADP^+, 90 mM glucose-6 phosphate and 1 Unit/mL glucose-6-phosphate dehydrogenase, incubated for 5 minutes to generate NADPH) was used as the coenzyme. After pre-incubation, part of the reaction solution was collected, diluted 10 times by mixing with a model substrate solution and the NADPH generating system, and then incubated for 10 minutes at 37° C. An equal amount of a mixed solution of acetonitrile and methanol (1:1, containing 0.05 μM dextrophan or 0.05 μM propranolol as an internal standard) was added to terminate the reaction, and metabolites of the model substrate in the reaction solution were measured by LC-MS/MS. […] The ratio relative to the amount of model substrate metabolites in the control test was given as residual activity. The ratio of residual activity in the presence of NADPH relative to residual activity in the absence of NADPH was evaluated, and the ratio of 80% or less was defined “+”, while the ratio of above 80% was defined as “−”.
For data set [2], the target named is T3, CYP2C19 (Homo sapiens, UniProt P33261). The description is as above. Format: in vitro ADME. The settings on record: 30 min pre-incubation at 37° C., S-mephenytoin, n = 2.
T3 sequence (P33261 whole entry): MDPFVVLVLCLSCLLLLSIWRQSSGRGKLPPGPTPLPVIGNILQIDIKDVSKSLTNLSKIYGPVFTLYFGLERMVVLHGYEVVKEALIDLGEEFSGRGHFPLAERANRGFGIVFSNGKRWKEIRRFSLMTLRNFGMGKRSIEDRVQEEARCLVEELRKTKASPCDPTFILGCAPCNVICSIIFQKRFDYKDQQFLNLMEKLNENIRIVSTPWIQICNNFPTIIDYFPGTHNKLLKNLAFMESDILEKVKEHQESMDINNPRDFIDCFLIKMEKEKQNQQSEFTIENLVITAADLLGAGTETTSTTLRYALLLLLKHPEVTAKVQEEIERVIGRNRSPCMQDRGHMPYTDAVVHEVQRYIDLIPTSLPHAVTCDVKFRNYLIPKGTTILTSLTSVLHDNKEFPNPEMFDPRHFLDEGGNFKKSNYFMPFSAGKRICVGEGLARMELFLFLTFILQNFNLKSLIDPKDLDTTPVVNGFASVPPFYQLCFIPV
Description: as §2
For data set [3], the target named is T4, CYP2D6 (Homo sapiens, UniProt P10635). The description is as above. The conditions noted are these: 30 min pre-incubation at 37° C., bufuralol, n = 2. Format: in vitro ADME.
T4 sequence (P10635 whole entry): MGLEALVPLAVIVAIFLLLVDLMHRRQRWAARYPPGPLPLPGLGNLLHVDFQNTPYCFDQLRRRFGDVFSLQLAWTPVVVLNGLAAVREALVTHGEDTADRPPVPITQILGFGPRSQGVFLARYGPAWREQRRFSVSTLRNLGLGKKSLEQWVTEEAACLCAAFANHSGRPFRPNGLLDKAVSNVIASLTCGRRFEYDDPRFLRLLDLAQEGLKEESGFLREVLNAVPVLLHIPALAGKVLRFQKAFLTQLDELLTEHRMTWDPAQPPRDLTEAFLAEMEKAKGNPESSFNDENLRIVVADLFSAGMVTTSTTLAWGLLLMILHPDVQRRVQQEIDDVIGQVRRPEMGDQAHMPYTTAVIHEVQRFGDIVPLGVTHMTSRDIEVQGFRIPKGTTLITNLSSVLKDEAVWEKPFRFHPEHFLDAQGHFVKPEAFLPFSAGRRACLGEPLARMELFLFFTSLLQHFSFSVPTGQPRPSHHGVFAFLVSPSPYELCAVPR
Description: as §2
The target in data set [4] is T5, CYP3A4 (Homo sapiens, UniProt P08684). Described as above. The conditions noted are these: 30 min pre-incubation at 37° C., midazolam, n = 2. In kind it is in vitro ADME.
T5 sequence (P08684 whole entry): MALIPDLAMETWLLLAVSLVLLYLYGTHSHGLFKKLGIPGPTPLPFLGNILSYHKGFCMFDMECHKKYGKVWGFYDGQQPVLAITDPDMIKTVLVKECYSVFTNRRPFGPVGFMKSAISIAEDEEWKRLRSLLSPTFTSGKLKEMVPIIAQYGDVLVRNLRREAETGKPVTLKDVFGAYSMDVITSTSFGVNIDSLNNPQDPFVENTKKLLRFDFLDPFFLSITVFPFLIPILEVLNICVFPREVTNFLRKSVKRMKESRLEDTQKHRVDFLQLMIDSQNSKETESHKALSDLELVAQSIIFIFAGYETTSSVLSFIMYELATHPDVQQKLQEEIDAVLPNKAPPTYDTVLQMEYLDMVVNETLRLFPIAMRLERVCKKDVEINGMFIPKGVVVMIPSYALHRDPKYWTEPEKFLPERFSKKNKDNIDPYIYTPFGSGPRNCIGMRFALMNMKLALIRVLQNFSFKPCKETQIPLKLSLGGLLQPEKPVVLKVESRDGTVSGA
Description: as §2
In data set [5] the target is T3, CYP2C19. Nature of the data set: Competitive CYP inhibition (Method 2), human hepatic microsome. Format: in vitro ADME. As for the experimental part: (§1) The inhibition rate was determined from the amounts of model substrate metabolites with and without addition of the test substance at each test substance concentration, and the IC50 value was calculated from the inhibition rate (calculation method in accordance with Xenobiotica, 1999, 29(1), 53-75).

Data set [6] deals with T2, CYP2C9. Described as above. In kind it is in vitro ADME. The procedure:
as §1

For data set [7], the target named is T4, CYP2D6. The description is as above. Format: in vitro ADME. As for the experimental part:
as §1

For data set [8], the target named is T5, CYP3A4. Described as above. In kind it is in vitro ADME. As for the experimental part: as §1
For data set [9], the target named is T6, CYP1A2 (Homo sapiens, UniProt P05177).
T6 sequence (P05177 1-516): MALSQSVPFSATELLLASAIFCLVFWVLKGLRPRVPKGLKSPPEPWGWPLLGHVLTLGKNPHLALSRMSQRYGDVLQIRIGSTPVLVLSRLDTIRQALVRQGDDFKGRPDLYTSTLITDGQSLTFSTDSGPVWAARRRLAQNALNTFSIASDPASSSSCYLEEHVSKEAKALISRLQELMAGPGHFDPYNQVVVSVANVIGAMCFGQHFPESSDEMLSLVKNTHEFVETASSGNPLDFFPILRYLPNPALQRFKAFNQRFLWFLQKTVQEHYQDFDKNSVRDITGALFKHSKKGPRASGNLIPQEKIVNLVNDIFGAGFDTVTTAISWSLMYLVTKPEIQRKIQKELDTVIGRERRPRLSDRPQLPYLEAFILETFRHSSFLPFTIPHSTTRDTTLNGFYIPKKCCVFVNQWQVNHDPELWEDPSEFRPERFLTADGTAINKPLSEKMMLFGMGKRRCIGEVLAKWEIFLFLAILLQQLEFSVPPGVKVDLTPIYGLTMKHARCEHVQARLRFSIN
The settings on record: 30 min pre-incubation at 37° C., phenacetin, n = 2.
Description: as §2

Data set [10] has as its target T6, CYP1A2. Nature of the data set: Competitive CYP inhibition (Method 2), human hepatic microsome. In kind it is in vitro ADME. Also on record: containing human hepatic microsome (0.2 mg/mL); from tissue; host or cells: human hepatic microsomal fraction. The settings on record: tested at 1 or 10 μM, phenacetin 10 μM, n = 2; read-out: CYP1A2 IC50 score (competitive inhibition). The procedure: as §1

The values that follow come from patent publication US8933100B2 (priority 2012, dated 2015).

SMILES strings stand for the structures. Where two headings read alike, the source gives them in different places.

T1 sequence (P31652 whole entry): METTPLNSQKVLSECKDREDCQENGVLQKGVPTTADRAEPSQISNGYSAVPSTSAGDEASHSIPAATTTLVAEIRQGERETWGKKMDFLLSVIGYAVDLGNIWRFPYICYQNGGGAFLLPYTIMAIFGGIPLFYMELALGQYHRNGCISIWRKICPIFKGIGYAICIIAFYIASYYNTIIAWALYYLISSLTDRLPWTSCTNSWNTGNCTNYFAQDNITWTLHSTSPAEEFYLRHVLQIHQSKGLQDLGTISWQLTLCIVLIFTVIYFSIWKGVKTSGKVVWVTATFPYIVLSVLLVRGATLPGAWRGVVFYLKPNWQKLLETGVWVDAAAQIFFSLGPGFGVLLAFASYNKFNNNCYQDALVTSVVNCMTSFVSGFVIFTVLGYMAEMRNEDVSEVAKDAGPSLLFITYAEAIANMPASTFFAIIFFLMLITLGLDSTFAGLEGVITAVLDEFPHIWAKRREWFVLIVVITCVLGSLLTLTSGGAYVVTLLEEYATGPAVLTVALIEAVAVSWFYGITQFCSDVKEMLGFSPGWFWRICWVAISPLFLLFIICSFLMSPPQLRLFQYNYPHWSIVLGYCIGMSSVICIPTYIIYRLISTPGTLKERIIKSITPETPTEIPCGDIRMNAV
Description for serotonin transporter: That is, the test compound was added to rat platelets, the fluorescent substance of a Neurotransmitter Transporter Activity Assay Kit (Molecular Devices, R8174) was added beginning after 15 minutes, and changes in fluorescent intensity from uptake of the fluorescent substance were measured over time to evaluate the inhibitory effect of the test compound on serotonin transporter.
2 Centrifugation was carried out at 350 g at room temperature for 5 minutes, and the supernatant containing platelet-rich plasma was collected in 15 ml falcon tubes.
3 Centrifugation was carried out at 2100 g at room temperature for 10 minutes to obtain platelets as a pellet. Ca-free K5 buffer was added in the amount of 0.7 times the amount of platelet-rich plasma obtained in operation 2, and the pellet was triturated by pipetting.
5 The fluorescent substance of a Neurotransmitter Transporter Activity Assay Kit was added, and changes in fluorescent intensity over time from uptake of the fluorescent substance through serotonin transporters were measured with a FDSS 6000 (Hamamatsu Photonics).

As for `Fc1ccc([C@@H]2CCNC[C@H]2COc2ccc3c(c2)COC3)cc1` [Example 1, (3S,4R)-3-[(1,3-dihydro-2-benzofuran-5-yloxy)methyl]-4-(4-fluorophenyl)piperidine], the IC50 is 0.0024 µM at serotonin transporter; above 10 µM on CYP2C19 [5]; above 10 µM at CYP2C9 [6]; above 10 µM at CYP2D6 [7]; above 10 µM at CYP3A4 [8]; above 10 µM on CYP1A2 [10]. For the same molecule, in the data set on male BALB/c mice, the “immobility time in forced swimming test” value is listed as “dose-dependently suppressed immobility time”. Besides, the “Ratio of residual CYP2C9 activity in presence vs absence of NADPH after pre-incubation” value on CYP2C9 [1] (10 μM) and at CYP2C9 [1] (50 μM) was “− (the ratio of above 80% was defined as “−”)” each time. Besides, the “Ratio of residual CYP2C19 activity in presence vs absence of NADPH after pre-incubation” value on CYP2C19 [2] (10 μM) and on CYP2C19 [2] (50 μM) was “− (the ratio of above 80% was defined as “−”)” in each case. Further, the “Ratio of residual CYP2D6 activity in presence vs absence of NADPH after pre-incubation” value on CYP2D6 [3] (10 μM) and at CYP2D6 [3] (50 μM) was “− (the ratio of above 80% was defined as “−”)” throughout. The “Ratio of residual CYP3A4 activity in presence vs absence of NADPH after pre-incubation” value at CYP3A4 [4] (10 μM) and at CYP3A4 [4] (50 μM) was “− (the ratio of above 80% was defined as “−”)” throughout. The “Ratio of residual CYP1A2 activity in presence vs absence of NADPH after pre-incubation” value at CYP1A2 [9] (10 μM) and on CYP1A2 [9] (50 μM) was “− (the ratio of above 80% was defined as “−”)” in each case.
On to `Fc1ccc([C@@H]2CCNC[C@H]2COc2ccc3c(c2)OCO3)cc1` [Paroxetine, (3S,4R)-3-[(2H-1,3-benzodioxol-5-yloxy)methyl]-4-(4-fluorophenyl)piperidine, reference compound], for which the “immobility time in forced swimming test” value in the data set on male BALB/c mice is listed as “dose-dependently suppressed immobility time”. For the same molecule, the half-maximal inhibitory concentration (IC50) at CYP2C9 [6] (tested at 1 or 10 μM, tolbutamide 100 μM, n = 2, read-out: CYP2C9 IC50 score (competitive inhibition)) is above 10 µM; at CYP1A2 [10] it was above 10 µM.
